# Results as given in patent US20050233904A1, “Herbicide-safener combination” (Bayer CropScience GmbH, priority 2004, published 2005).
# How the values were obtained:
# Type in all cases: in vivo
# [1] = tested on: harmful plants such as Sinapis alba, Chrysanthemum segetum, Avena sativa, Stellaria media, Echinochloa crus-galli, Lolium multiflorum, Setaria viridis …; test: Pre-emergence action against weeds (greenhouse pot test, optical scoring vs untreated controls); details: herbicide-safener combination with the safeners dymron (b-14), fenclorim (b-11), cumyluron (b-4), isoxadifen-ethyl (II-9), mefenpyr-diethyl (II-1), cloquintocet-mexyl (III-1), S3-1, h-1, h-2, h-3, dietholate (b-7), disulfoton (b-5), 1,8-naphthalic anhydride (b-1), fluxofenim (b-10), dichlormid (IV-1), benoxacor (IV-2), flurazole (b-12), R-29148 (IV-4); application rate of 100 g or less of herbicid
# Text: (§1) Seeds or rhizome pieces of monocotyledonous and dicotyledonous weed plants were placed in sandy loam soil in cardboard pots and covered with soil. The active compounds (A) and (B), formulated in the form of wettable powders or emulsion concentrates, were then applied to the surface of the covering soil in various dosages as an aqueous suspension or emulsion using a water application rate of 600 to 800 I/ha (converted).
# After the treatment, the pots were placed in a greenhouse and kept under good growth conditions for the weeds. Optical scoring of the damage to the plants or emerged plants was carried out after emergence of the test plants after a trial period of 3 to 4 weeks, in comparison to untreated controls. As shown by the results, the tested herbicide-safener combinations have good herbicidal pre-emergence activity against a broad spectrum of weed grasses and broad-leaved weeds.
# [2] = tested on: harmful plants such as Sinapis alba, Echinochloa crus-galli, Lolium multiflorum, Chrysanthemum segetum, Setaria viridis, Abutilon theophrasti, Amaranthus …; test: Post-emergence action against weeds (greenhouse pot test, visual scoring vs untreated controls); details: herbicide-safener combination with the safeners dymron (b-14), fenclorim (b-11), cumyluron (b-4), isoxadifen-ethyl (II-9), mefenpyr-diethyl (II-1), cloquintocet-mexyl (III-1), S3-1, h-1, h-2, h-3, dietholate (b-7), disulfoton (b-5), 1,8-naphthalic anhydride (b-1), fluxofenim (b-10), dichlormid (IV-1), benoxacor (IV-2), flurazole (b-12), R-29148 (IV-4); treated at three-leaf stage; application rate
# Description: (§2) Seeds or rhizome pieces of monocotyledonous and dicotyledonous weeds were placed into sandy loam soil in plastic pots, covered with soil and grown in a greenhouse under good growth conditions. Three weeks after sowing, the test plants were treated at the three-leaf stage. The compounds according to the invention, formulated as wettable powders or as emulsion concentrates, were sprayed onto the green parts of the plants at various dosages using a water application rate of 600 to 800 I/ha (converted). The test plants were stood in the greenhouse under optimum growth conditions for about three to four weeks, and the action of the preparations was then scored visually in comparison to untreated controls. Post-emergence, too, the herbicide-safener combinations according to the invention have good herbicidal activity against a broad spectrum of economically important weed grasses and broad-leaved weeds.
# [3] = tested on: crop plants such as cotton, oil seed rape, sugar beet and Gramineae crops such as barley, wheat, rye, millet, corn or rice; details: herbicide-safener combination with the safeners dymron (b-14), fenclorim (b-11), cumyluron (b-4), isoxadifen-ethyl (II-9), mefenpyr-diethyl (II-1), cloquintocet-mexyl (III-1), S3-1, h-1, h-2, h-3, dietholate (b-7), disulfoton (b-5), 1,8-naphthalic anhydride (b-1), fluxofenim (b-10), dichlormid (IV-1), benoxacor (IV-2), flurazole (b-12), R-29148 (IV-4); pre-emergence or post-emergence method; score
# Text: as §1, §2
# In further greenhouse trials, seeds of a relatively large number of crop plants and weeds were placed into sandy loam soil and covered with soil. Some of the pots were immediately treated as described in Section 1, the others were placed in a greenhouse until the plants had developed two to three true leaves and were then sprayed with various dosages of the herbicide-safener combinations according to the invention, as described in Section 2.
Compound,"herbicidal activity against harmful plants, pre-emergence method [1]","herbicidal activity against harmful plants, post-emergence method [2]",damage to crop plants [3]
CCOc1cc(OC)nc(NC(=O)NS(=O)(=O)c2ncccc2C2=NOCCO2)n1 [Compound I-1],very good herbicidal activity,very good herbicidal activity,did not cause any damage
COc1cc(C)nc(NC(=O)[N-]S(=O)(=O)c2ncccc2C2=NOCCO2)n1.[Na+] [Compound I-3],very good herbicidal activity,very good herbicidal activity,did not cause any damage
COc1cc(N(C)C)nc(NC(=O)NS(=O)(=O)c2ncccc2C2=NOCCO2)n1 [Compound I-8],very good herbicidal activity,very good herbicidal activity,did not cause any damage
COc1cc(Cl)nc(NC(=O)NS(=O)(=O)c2ncccc2C2=NOCCO2)n1 [Compound I-9],very good herbicidal activity,very good herbicidal activity,did not cause any damage
COc1cc(Cl)nc(NC(=O)[N-]S(=O)(=O)c2ncccc2C2=NOCCO2)n1.[Na+] [Compound I-10],very good herbicidal activity,very good herbicidal activity,did not cause any damage
COc1cc(OC)nc(NC(=O)NS(=O)(=O)c2ncccc2C2=NOCCO2)n1 [Compound I-11],very good herbicidal activity,very good herbicidal activity,did not cause any damage
COc1cc(OC)nc(NC(=O)[N-]S(=O)(=O)c2ncccc2C2=NOCCO2)n1.[Na+] [Compound I-12],very good herbicidal activity,very good herbicidal activity,did not cause any damage
CCOc1cc(OCC)nc(NC(=O)[N-]S(=O)(=O)c2ncccc2C2=NOCCO2)n1.[Na+] [Compound I-14],very good herbicidal activity,very good herbicidal activity,did not cause any damage
CCOc1cc(Cl)nc(NC(=O)NS(=O)(=O)c2ncccc2C2=NOCCO2)n1 [Compound I-21],very good herbicidal activity,very good herbicidal activity,did not cause any damage
CCOc1cc(Cl)nc(NC(=O)[N-]S(=O)(=O)c2ncccc2C2=NOCCO2)n1.[Na+] [Compound I-22],very good herbicidal activity,very good herbicidal activity,did not cause any damage
Cc1cc(C)nc(NC(=O)NS(=O)(=O)c2ncccc2C2=NOCCO2)n1 [Compound I-23],very good herbicidal activity,very good herbicidal activity,did not cause any damage
Cc1cc(Cl)nc(NC(=O)NS(=O)(=O)c2ncccc2C2=NOCCO2)n1 [Compound I-29],very good herbicidal activity,very good herbicidal activity,did not cause any damage
Cc1cc(Cl)nc(NC(=O)[N-]S(=O)(=O)c2ncccc2C2=NOCCO2)n1.[Na+] [Compound I-30],very good herbicidal activity,very good herbicidal activity,did not cause any damage
COc1nc(NC(=O)NS(=O)(=O)c2ncccc2C2=NOCCO2)nc(OC)n1 [Compound I-51],very good herbicidal activity,very good herbicidal activity,did not cause any damage
COc1nc(NC(=O)[N-]S(=O)(=O)c2ncccc2C2=NOCCO2)nc(OC)n1.[Na+] [Compound I-52],very good herbicidal activity,very good herbicidal activity,did not cause any damage
COc1nc(NC(=O)[N-]S(=O)(=O)c2ncccc2C2=NOCCO2)nc(N(C)C)n1.[Na+] [Compound I-60],very good herbicidal activity,very good herbicidal activity,did not cause any damage
CCOc1nc(Cl)nc(NC(=O)[N-]S(=O)(=O)c2ncccc2C2=NOCCO2)n1.[Na+] [Compound I-70],very good herbicidal activity,very good herbicidal activity,did not cause any damage
CN(C)c1nc(NC(=O)NS(=O)(=O)c2ncccc2C2=NOCCO2)nc(OCC(F)(F)F)n1 [Compound I-142],very good herbicidal activity,very good herbicidal activity,did not cause any damage
O=C(Nc1nc(Cl)cc(OCC(F)(F)F)n1)NS(=O)(=O)c1ncccc1C1=NOCCO1 [Compound I-143],very good herbicidal activity,very good herbicidal activity,did not cause any damage
O=C([N-]S(=O)(=O)c1ncccc1C1=NOCCO1)Nc1nc(Cl)cc(OCC(F)(F)F)n1.[Na+] [Compound I-145],very good herbicidal activity,very good herbicidal activity,did not cause any damage
